The text below walks through data of article PMC5698704 (Chemmedchem, 2017).

One series concerns MOLM‐13 cells. Put plainly: Proliferation assay MOLM‐13. The class given is cell-based. The conditions noted are these: Homo sapiens, MOLM-13, 96 h, read-out: MOLM‐13 IC50.
A further series deals with CYP3A4. Kind of series: CYP induction in cultured human hepatocytes. The class given is in vitro ADME.
The nature of series [1]: Equilibrium shake flask solubility assay. The class given is physicochemical. The conditions noted are these: aqueous solubility, phosphate buffer pH 6.5, 24 h; solid state not characterized.
Series [2] concerns CYP1A2, CYP2C8, CYP2C9, CYP2D6, CYP3A4. Put plainly: CYP inhibition in human liver microsomes. It counts as in vitro ADME. (Microsomes from liver hold many membrane-bound enzymes, among them those of drug oxidation.)
The next series deals with HeLa cells. Kind of series: Proliferation assay HeLa. The class given is cell-based. Particulars: Homo sapiens, 96 h, read-out: HeLa IC50.
In another series the test system is MOLM‐13 human AML model. Put plainly: MOLM‐13 human AML xenograft model in mice. Particulars: for T/C ratio: end of the experiment. The class given is in vivo, mouse. Background: Xenograft models place foreign cells or tissue in a host animal.
A further series deals with T1, Flt3(h) (Homo sapiens, UniProt P36888).
T1 sequence (P36888 27-993): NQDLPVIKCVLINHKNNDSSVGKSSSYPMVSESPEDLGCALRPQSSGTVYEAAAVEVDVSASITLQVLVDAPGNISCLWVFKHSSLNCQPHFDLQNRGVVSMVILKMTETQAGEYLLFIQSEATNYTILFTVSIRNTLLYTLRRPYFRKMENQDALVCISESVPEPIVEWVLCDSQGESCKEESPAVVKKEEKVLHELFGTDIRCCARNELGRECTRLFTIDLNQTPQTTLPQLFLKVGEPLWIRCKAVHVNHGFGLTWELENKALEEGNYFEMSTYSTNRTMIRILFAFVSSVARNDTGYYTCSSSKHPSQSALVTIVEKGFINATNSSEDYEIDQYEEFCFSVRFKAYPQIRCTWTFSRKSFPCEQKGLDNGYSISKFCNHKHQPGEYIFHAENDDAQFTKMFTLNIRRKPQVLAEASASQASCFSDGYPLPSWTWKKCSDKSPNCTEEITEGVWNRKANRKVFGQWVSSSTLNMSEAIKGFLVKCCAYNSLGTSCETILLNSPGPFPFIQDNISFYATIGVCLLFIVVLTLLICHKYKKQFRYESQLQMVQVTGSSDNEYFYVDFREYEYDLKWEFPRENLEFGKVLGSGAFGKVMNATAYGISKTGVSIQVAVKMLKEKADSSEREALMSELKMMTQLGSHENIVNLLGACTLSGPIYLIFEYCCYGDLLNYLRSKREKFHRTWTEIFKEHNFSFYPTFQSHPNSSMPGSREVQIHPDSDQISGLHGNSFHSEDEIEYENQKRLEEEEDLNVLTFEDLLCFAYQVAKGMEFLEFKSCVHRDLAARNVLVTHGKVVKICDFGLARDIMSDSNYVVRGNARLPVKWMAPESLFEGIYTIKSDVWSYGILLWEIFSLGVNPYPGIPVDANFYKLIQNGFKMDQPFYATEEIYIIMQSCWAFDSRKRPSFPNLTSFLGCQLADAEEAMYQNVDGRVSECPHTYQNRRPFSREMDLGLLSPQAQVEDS
Kind of series: Merck Millipore KinaseProfiler. The class given is biochemical. The conditions noted are these: Merck Millipore KinaseProfiler panel.

Another series concerns MV4‐11 cells. Put plainly: Antiproliferative activity MV4‐11. The conditions noted are these: Homo sapiens, MV4-11, read-out: MV4‐11 IC50. It counts as cell-based.
The next series relates to MV4‐11 human AML model. Put plainly: MV4‐11 human AML xenograft model in rats. The class given is in vivo, rat.
The nature of series [3]: MV4‐11 human AML xenograft model in rats. It counts as in vivo, rat. Particulars: female, athymic nude, rat, in vivo, po, 12 mg kg^−1.
The next series addresses CDK3/cyclinE(h) (Homo sapiens, UniProt Q00526). Kind of series: Merck Millipore KinaseProfiler. The class given is biochemical. The conditions noted are these: IC50 CDK3/CycE(h), Millipore panel, 10 µM ATP.
The next series deals with CDK9/CycT1 (Homo sapiens, UniProt P50750). Kind of series: CDK9/CycT1 kinase assay. It counts as biochemical.
CDK9/CycT1, sequence (P50750 whole entry): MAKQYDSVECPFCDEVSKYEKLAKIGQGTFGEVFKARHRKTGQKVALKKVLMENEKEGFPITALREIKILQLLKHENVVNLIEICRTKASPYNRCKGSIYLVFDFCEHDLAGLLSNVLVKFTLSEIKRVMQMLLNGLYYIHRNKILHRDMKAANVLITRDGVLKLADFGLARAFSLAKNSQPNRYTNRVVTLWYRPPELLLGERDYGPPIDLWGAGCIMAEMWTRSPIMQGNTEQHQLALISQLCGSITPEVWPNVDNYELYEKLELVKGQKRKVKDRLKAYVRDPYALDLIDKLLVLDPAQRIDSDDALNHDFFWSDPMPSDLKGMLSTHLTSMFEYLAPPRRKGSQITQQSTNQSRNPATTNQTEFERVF
CDK9/CycT1, sequence (O60563 whole entry partner): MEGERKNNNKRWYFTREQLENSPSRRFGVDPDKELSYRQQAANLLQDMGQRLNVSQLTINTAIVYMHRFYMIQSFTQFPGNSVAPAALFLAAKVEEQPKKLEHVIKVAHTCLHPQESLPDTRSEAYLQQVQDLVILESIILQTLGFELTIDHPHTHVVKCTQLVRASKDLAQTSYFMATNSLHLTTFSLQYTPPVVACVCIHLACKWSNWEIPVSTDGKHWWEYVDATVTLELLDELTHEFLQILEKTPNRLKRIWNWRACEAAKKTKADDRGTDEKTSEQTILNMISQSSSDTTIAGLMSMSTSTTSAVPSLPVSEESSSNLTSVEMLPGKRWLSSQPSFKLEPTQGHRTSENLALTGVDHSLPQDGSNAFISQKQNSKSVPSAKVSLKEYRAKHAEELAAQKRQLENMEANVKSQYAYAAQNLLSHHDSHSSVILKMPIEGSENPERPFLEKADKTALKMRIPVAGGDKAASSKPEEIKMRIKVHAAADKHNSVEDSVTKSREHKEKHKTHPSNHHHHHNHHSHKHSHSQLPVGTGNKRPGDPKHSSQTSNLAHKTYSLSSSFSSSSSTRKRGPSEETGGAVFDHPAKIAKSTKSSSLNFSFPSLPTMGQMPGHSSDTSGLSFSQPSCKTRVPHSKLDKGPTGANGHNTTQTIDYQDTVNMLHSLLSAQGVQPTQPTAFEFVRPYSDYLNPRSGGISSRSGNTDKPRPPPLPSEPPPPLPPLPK
For another series, the system named is CDK2/CycE. Put plainly: CDK2/CycE kinase assay. The class given is biochemical, human. The conditions noted are these: ratio of IC50 values CDK2/CDK9, in-house assays.
A short description of series [4]: Metabolic stability in rat liver microsomes. The class given is in vitro ADME.
Series [5] is described as follows: Metabolic stability in mouse liver microsomes. The class given is in vitro ADME.
Series [6] can be described thus: Metabolic stability in human liver microsomes. It counts as in vitro ADME.
The target of a further series is CDK1/cyclinB(h) (Homo sapiens, UniProt P06493). Put plainly: Merck Millipore KinaseProfiler. The class given is biochemical. Particulars: IC50 CDK1/CycB(h), Millipore panel, 10 µM ATP.
CDK1/cyclinB(h), sequence (P14635 whole entry): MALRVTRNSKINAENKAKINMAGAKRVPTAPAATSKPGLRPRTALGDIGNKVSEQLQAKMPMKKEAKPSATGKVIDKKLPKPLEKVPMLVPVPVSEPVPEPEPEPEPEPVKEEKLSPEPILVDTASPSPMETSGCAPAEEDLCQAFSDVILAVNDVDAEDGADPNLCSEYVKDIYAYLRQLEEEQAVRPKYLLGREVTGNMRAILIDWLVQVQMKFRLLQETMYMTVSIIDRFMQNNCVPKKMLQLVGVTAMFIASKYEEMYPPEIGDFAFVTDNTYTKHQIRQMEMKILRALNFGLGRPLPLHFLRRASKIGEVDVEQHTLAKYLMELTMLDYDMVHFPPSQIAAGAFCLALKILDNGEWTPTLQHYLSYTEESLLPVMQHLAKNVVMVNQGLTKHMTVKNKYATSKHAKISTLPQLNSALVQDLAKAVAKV
CDK1/cyclinB(h), sequence (P06493 whole entry): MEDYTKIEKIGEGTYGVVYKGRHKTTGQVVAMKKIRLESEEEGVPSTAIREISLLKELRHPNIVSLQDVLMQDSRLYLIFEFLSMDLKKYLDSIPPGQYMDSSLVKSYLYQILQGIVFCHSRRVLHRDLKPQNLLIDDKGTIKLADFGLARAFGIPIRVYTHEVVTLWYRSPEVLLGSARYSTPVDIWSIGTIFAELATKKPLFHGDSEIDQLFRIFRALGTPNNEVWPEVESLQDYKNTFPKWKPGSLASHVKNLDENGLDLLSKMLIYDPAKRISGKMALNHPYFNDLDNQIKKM
Another series concerns the target CDK2/cyclinE(h) (Homo sapiens, UniProt P24941). Kind of series: Merck Millipore KinaseProfiler. It counts as biochemical. The conditions noted are these: IC50 CDK2/CycE(h), Millipore panel, 10 µM ATP.
In another series the target is CDK9/cyclin T1(h) (Homo sapiens, UniProt P50750). Kind of series: Merck Millipore KinaseProfiler. The class given is biochemical.
CDK9/cyclin T1(h), sequence (P50750 whole entry): as the sequence (P50750 whole entry) above
CDK9/cyclin T1(h), sequence (O60563 whole entry partner): as the sequence (O60563 whole entry partner) above
For another series, the target named is CDK7/cyclinH/MAT1(h) (Homo sapiens, UniProt P50613). Kind of series: Merck Millipore KinaseProfiler. It counts as biochemical.
CDK7/cyclinH/MAT1(h), sequence (P50613 whole entry): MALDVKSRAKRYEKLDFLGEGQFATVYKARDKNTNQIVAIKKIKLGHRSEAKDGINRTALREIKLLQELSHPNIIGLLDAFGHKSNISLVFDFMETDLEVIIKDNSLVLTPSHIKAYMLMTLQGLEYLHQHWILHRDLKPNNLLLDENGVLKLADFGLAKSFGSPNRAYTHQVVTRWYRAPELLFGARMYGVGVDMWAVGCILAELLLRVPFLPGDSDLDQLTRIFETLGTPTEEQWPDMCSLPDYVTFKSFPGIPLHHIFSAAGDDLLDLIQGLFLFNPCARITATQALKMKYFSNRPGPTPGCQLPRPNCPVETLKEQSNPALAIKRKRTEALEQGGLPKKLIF
CDK7/cyclinH/MAT1(h), sequence (P51946 whole entry partner): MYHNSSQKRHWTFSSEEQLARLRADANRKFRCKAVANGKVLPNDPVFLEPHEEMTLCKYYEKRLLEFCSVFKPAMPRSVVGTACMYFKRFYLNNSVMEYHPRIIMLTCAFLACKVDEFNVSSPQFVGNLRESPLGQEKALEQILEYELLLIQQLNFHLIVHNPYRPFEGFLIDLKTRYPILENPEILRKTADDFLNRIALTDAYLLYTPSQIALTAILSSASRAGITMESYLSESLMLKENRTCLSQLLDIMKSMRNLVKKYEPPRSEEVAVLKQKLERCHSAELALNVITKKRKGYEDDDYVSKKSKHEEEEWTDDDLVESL
CDK7/cyclinH/MAT1(h), sequence (P51948 whole entry partner): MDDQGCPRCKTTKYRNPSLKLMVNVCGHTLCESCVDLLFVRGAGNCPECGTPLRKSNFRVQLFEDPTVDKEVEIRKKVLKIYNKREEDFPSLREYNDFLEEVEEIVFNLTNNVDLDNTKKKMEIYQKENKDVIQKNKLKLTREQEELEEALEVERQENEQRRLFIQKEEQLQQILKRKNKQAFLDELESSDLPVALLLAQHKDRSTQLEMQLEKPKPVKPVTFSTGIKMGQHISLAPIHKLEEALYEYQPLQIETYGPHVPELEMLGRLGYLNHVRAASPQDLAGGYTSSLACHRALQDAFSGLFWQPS
The target of another series is CDK5/p35(h) (Homo sapiens, UniProt Q00535). Put plainly: Merck Millipore KinaseProfiler. It counts as biochemical. The conditions noted are these: Millipore panel, 10 µM ATP.
CDK5/p35(h), sequence (Q00535 whole entry): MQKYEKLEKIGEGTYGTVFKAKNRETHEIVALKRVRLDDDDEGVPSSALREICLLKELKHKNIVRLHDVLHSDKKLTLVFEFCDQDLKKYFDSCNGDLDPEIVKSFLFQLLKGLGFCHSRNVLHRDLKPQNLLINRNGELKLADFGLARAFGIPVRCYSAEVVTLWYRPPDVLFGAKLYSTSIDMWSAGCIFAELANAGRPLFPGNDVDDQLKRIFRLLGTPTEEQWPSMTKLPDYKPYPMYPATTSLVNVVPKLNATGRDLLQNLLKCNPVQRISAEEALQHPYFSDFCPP
CDK5/p35(h), sequence (Q15078 whole entry partner): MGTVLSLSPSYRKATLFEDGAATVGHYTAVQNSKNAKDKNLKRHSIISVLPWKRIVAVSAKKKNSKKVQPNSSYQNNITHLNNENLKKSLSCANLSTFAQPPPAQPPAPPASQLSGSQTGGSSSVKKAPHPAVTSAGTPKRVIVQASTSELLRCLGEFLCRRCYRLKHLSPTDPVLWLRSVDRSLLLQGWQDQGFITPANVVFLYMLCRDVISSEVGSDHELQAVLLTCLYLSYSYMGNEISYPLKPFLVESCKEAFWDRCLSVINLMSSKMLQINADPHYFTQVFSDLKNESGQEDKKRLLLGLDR
Series [7] in a line: Blood/plasma partitioning in rats. It counts as in vitro ADME. The conditions noted are these: rat, blood and plasma.
A further series concerns the target CDK6/cyclinD3(h) (Homo sapiens, UniProt Q00534). Put plainly: Merck Millipore KinaseProfiler. It counts as biochemical.
A further series relates to rat hepatocytes. Kind of series: Metabolic stability in rat hepatocytes. The class given is in vitro ADME. Particulars: predicted blood clearance from rat hepatocytes, 1 μM.
A short description of series [8]: Caco‐2 permeability assay. The conditions noted are these: human, Caco-2, pH 7.2. It counts as in vitro ADME. (In general: Caco-2 cells form a polarised layer with tight junctions and transporters.)

Values joined by “and” are separate entries in the source; they are usually repeats but may differ in a detail not shown here. Equal entries are not always repeated.

CDK3/cyclinE(h), sequence (Q00526 whole entry): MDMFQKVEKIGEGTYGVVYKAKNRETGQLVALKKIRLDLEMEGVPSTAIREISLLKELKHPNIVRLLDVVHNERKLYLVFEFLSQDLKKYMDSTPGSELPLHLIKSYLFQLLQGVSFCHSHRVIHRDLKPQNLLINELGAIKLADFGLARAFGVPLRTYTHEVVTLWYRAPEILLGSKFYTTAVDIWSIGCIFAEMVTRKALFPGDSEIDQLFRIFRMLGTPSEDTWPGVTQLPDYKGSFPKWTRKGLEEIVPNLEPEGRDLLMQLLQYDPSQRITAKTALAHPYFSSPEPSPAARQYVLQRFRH
CDK3/cyclinE(h), sequence (P24864 whole entry, further chain): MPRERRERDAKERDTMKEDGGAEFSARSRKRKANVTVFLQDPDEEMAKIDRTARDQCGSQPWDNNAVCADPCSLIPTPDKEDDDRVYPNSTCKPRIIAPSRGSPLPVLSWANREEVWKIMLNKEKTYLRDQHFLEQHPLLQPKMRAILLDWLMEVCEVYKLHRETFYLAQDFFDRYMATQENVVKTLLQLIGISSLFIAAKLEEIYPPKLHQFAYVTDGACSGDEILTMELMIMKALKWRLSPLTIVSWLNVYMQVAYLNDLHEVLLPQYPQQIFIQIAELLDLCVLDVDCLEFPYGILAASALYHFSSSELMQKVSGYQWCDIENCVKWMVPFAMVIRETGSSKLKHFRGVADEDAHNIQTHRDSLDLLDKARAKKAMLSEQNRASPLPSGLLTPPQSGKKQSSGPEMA
CDK6/cyclinD3(h), sequence (Q00534 whole entry): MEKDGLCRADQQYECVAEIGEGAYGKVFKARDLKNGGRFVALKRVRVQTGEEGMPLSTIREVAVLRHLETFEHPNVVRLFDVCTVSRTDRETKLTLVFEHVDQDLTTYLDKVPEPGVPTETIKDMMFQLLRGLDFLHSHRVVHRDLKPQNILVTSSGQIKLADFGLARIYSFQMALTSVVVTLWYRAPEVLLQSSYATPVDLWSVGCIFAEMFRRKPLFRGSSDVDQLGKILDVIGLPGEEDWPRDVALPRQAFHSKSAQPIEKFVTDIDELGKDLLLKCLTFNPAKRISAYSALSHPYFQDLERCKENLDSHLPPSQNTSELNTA
CDK6/cyclinD3(h), sequence (P30281 whole entry partner): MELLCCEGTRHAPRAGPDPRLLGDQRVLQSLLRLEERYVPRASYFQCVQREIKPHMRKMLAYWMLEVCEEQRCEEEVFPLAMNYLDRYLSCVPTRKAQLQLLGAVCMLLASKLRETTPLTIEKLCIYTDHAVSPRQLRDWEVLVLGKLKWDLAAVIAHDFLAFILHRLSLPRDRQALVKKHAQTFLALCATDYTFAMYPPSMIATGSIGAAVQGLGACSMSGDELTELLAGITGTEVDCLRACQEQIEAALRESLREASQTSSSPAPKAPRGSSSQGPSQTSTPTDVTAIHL

Take `COc1cc(F)ccc1-c1ncnc(Nc2cccc(CS(C)(=O)=O)c2)n1` [Compound 4, 4‐(4‐Fluoro‐2‐methoxyphenyl)‐N‐{3‐[(methylsulfonyl)methyl]phenyl}‐1,3,5‐triazin‐2‐amine]: the IC50 (commonly the concentration that inhibits the measured activity by half) in the series with MOLM‐13 cells was determined as 0.13 µM.
As to `COc1cc(F)ccc1-c1ncnc(Nc2cccc(C[S@](C)(=N)=O)c2)n1` [BAY 1143572, (R)‐4‐(4‐Fluoro‐2‐methoxyphenyl)‐N‐{3‐[(S‐methylsulfonimidoyl)methyl]phenyl}‐1,3,5‐triazin‐2‐amine], the “Induction of CYP3A4 in vitro” value in the series with CYP3A4 is given as “not observed”. For the same molecule, in series [1], the “Sw, pH 6.5” value is on record as 479 mg L^−1. Besides, the IC50 is more than 20 µM in series [2]; 0.92 µM with HeLa cells; 0.89 µM with MV4‐11 cells; 0.31 µM with MOLM‐13 cells; 0.89 µM against CDK3/cyclinE(h). Besides, the “mean body weight reduction” value with MOLM‐13 human AML model (throughout the study, all BAY 1143572 regimens) was “less than 10%”. Further, on Flt3(h), the “activity against Flt3” value is listed as “did not show relevant activity”. The tumor response result with MV4‐11 human AML model (12 mg kg^−1 daily oral for 14 days) is recorded as “almost complete tumor remission”. In addition, in the series with MV4‐11 human AML model (57 days after initial inoculation, after 12 mg kg^−1 daily for 14 days), the “tumor regrowth at the conclusion of the experiment” value was “no tumor regrowth in nine of the 12 test animals”. Further, the MTD at 14 days in series [3] came to 12 mg/kg. For the same molecule, the “CLb, rat in vivo, i.v.” value in the series “Rat PK study in vivo” is 18.3 mL/min/kg.
As for `COc1cc(F)ccc1-c1ncnc(Nc2cccc(S(C)(=O)=O)c2)n1` [Compound 5, 4‐(4‐Fluoro‐2‐methoxyphenyl)‐N‐[3‐(methylsulfonyl)phenyl]‐1,3,5‐triazin‐2‐amine], the results for the IC50 against CDK9/CycT1 and in the series with HeLa cells were 0.032 µM and 1.34 µM, respectively. For the same molecule, the “Selectivity vs. CDK2, ratio of IC50 values” (shortened to “Selectivity vs. CDK2, ratio”) in the series on CDK2/CycE is 19.
Turning to `COc1cc(F)ccc1-c1ncnc(Nc2cccc(CS(N)(=O)=O)c2)n1.Cl` [BAY‐958 hydrochloride, 1‐(3‐{[4‐(4‐Fluoro‐2‐methoxyphenyl)‐1,3,5‐triazin‐2‐yl]amino}phenyl)methanesulfonamide hydrochloride], the T/C ratio in the series with MOLM‐13 human AML model (30 mg kg^−1 daily oral) came out at 0.16. Further, the T/C ratio in the series on MOLM‐13 human AML model (40 mg kg^−1 daily oral) is 0.12. Moreover, in the series on MOLM‐13 human AML model (30 or 40 mg kg^−1 daily oral), the body weight change result is reported as “less than 10%” and the fatal toxicities entry was “no fatal toxicities”.
Take `COc1cc(F)ccc1-c1ncnc(Nc2ccc3c(c2)S(=O)(=O)CC3)n1` [Compound 7, N‐( 1,1‐Dioxido‐2,3‐dihydro‐1‐benzothien‐6‐yl)‐4‐(4‐fluoro‐2‐methoxyphenyl)‐1,3,5‐triazin‐2‐amine]: the results for the IC50 against CDK9/CycT1 and with HeLa cells were 0.007 µM and 0.55 µM, respectively. Moreover, the “Selectivity vs. CDK2, ratio” value in the series with CDK2/CycE was 22.
Turning to `NS(=O)(=O)Cc1cccc(Nc2ncnc(-c3ccc(F)cc3OCc3ccccc3)n2)c1` [Compound 23, 1‐[3‐({4‐[2‐(Benzyloxy)‐4‐fluorophenyl]‐1,3,5‐triazin‐2‐yl}amino)phenyl]methanesulfonamide], the IC50 on CDK9/CycT1 was determined as 0.004 µM; in the series with HeLa cells, 0.1 µM. The “Selectivity vs. CDK2, ratio” value in the series on CDK2/CycE was 34. Further, the recovery at 60 min in series [4] (rat, liver microsomes) was found to be 0%; in series [5] it was 0.2%; in [6], 0%.
On to `COc1cc(F)ccc1-c1ncnc(Nc2cccc(CS(N)(=O)=O)c2)n1` [BAY‐958, 1‐(3‐{[4‐(4‐Fluoro‐2‐methoxyphenyl)‐1,3,5‐triazin‐2‐yl]amino}phenyl)methanesulfonamide], for which the “Induction of CYP3A4 in vitro” value in the series on CYP3A4 is reported as “not observed”. Also, the IC50 against CDK1/cyclinB(h) is 0.69 µM; against CDK2/cyclinE(h), 0.47 µM; against CDK9/cyclin T1(h) it was 0.005 µM; on CDK7/cyclinH/MAT1(h) it was more than 10 µM; against CDK5/p35(h), 0.8 µM; in series [2], more than 20 µM. Also, the IC50 in the series with HeLa cells is 1 µM; on CDK6/cyclinD3(h), 4.4 µM; with MOLM‐13 cells, 0.28 µM; against CDK3/cyclinE(h) it was 0.57 µM. Besides, at CDK9/cyclin T1(h) (Millipore panel, relative to CDK9/CycT1 IC50), the “selectivity vs. other CDKs” value is listed as more than 90. Moreover, in the series with CDK2/CycE, the “Selectivity vs. CDK2, ratio” value was found to be 98. In [4] (predicted blood clearance from rat liver microsomes), the “CLb, ratLM” value was 8 mL/min/kg. Moreover, in series [7], the blood plasma ratio stood at 3. Further, the “CLb, rat in vivo, i.v.” value in “Rat PK study in vivo” was 8.3 mL/min/kg and 8.33 mL/min/kg. The half-life (commonly the time needed for the level to fall by half in the phase considered) in the series “Rat PK study in vivo” (male, Wistar, plasma, iv) is 42 min. Further, the “F, rat in vivo, p.o.” value in “Rat PK study in vivo” (oral bioavailability) is on record as 10%. In the series on rat hepatocytes, the “CLb, ratHep” value was 5.5 mL/min/kg. Besides, in [8], the efflux ratio (commonly the permeability from basolateral to apical divided by that in the opposite direction, in the common usage) at 2 h, 2 μM stood at 15.
Consider `NS(=O)(=O)Cc1cccc(Nc2ncnc(-c3ccc(F)cc3O)n2)c1` [Compound 17, 1‐(3‐{[4‐(4‐Fluoro‐2‐hydroxyphenyl)‐1,3,5‐triazin‐2‐yl]amino}phenyl)methanesulfonamide], for which the IC50 is 0.13 µM on CDK9/CycT1 and 2.9 µM in the series on HeLa cells. The “Selectivity vs. CDK2, ratio” value in the series with CDK2/CycE is given as 6.
As to `COc1cc(F)ccc1-c1ncnc(Nc2cccc(CCS(C)(=O)=O)c2)n1` [Compound 6, 4‐(4‐Fluoro‐2‐methoxyphenyl)‐N‐{3‐[2‐(methylsulfonyl)ethyl]phenyl}‐1,3,5‐triazin‐2‐amine], the IC50 against CDK9/CycT1 stood at 0.049 µM; in the series with HeLa cells, 2.2 µM. In addition, in the series on CDK2/CycE, the “Selectivity vs. CDK2, ratio” value amounted to 12.
Taken in the same sequence, the figures for `COc1cc(F)ccc1-c1ncnc(Nc2cccc(C(F)(F)S(C)(=O)=O)c2)n1` [Compound 13, N ‐{3‐[Difluoro(methylsulfonyl)methyl]phenyl}‐4‐(4‐fluoro‐2‐methoxyphenyl)‐1,3,5‐triazin‐2‐amine] were 0.067 µM, 4.2 µM and 19.
The corresponding values for `NS(=O)(=O)Cc1cccc(Nc2ncnc(-c3ccccc3OC(F)(F)F)n2)c1` [Compound 19, 1‐[3‐({4‐[2‐(Trifluoromethoxy)phenyl]‐1,3,5‐triazin‐2‐yl}amino)phenyl]methanesulfonamide] are 0.62 µM, more than 3 µM and 20.
